{"source": "patent US20260224542A1", "about": "“PHARMACEUTICAL COMPOSITION CONTAINING ß-LACTAMASE INHIBITOR AND USE THEREOF” (priority 2023, published 2026)", "key": {"[1]": {"assay": "Solubility of Compound 1 incubated for 24 h at 25° C. (Example 6)", "type": "physicochemical", "experimental": "The solubilization effect of sodium sulfobutylether-β-cyclodextrin (SBECD) and hydroxypropyl-β-cyclodextrin (HP-β-CD) on Compound 1 was investigated by taking the solubility in 50 mM pH 4.5 acetate buffer medium and water as a reference.\nIn the art, surfactants may also be used for solubilization. To further improve the solubility of Compound 1, a surfactant was added on the basis of SBECD to investigate the solubility."}, "[2]": {"test_system": "Klebsiella pneumoniae AR0113", "assay": "Neutropenic mouse thigh infection, imipenem + Compound 1 dose ratios (Example 4)", "type": "in vivo", "conditions": "Compound 1 total 96 mg/kg; 9 h after inoculation", "experimental": "(§1) The overnight cultures are washed twice with phosphate buffer solution (PBS) and adjusted to the optimal concentration in PBS.\n(§2) For intravenous (IV) administration, the solution of Compound 1 is prepared using a Captisol vehicle, which is 25 mM acetate buffer (prepared with sodium acetate trihydrate) containing 10% w/v Captisol. The pH is adjusted to 5.0 with 2N acetic acid solution. A desired volume of buffer is added to the weighed sample, the desired concentration of Compound 1 is prepared in the buffer, which is then ultrasonically heated in a water bath until a clear solution was obtained. The administrated volume of Compound 1 is 5 mL/kg.\n(§3) For subcutaneous (SC) administration, an imipenem solution or imipenem-cilastatin solution is prepared in sterile PBS by using imipenem monohydrate or imipenem monohydrate and cilastatin sodium. The desired concentration of imipenem is prepared by adding PBS to the solid powder, then sonicating the mixture in a water bath until a clear solution is obtained, and the administrated volume is 10 mL/kg.\n(§4) The mice were divided into 16 groups, with 5 mice in each group. […]\n(§5) For the […] Group 1 (control group) above, animals were euthanized with an overdose of sodium pentobarbital 1 hour after inoculation. As described above, bilateral thighs were dissected and quantitatively cultured for use as final samples."}, "[3]": {"test_system": "Pseudomonas aeruginosa ACC00680", "assay": "Neutropenic mouse thigh infection, imipenem + Compound 1 dose ratios (Example 1)", "type": "in vivo", "conditions": "9 h after inoculation", "experimental": "as §1, §2, §3\nThe mice were divided into 15 groups, with 5 mice in each group. The test was carried out following the above steps, the concentration of the bacterial solution of Pseudomonas aeruginosa ACC00680 was 1.83×10^5 colony forming unit (CFU) per gram of thigh tissues, and the administration was conducted according to the scheme in the table below.\nFor Groups 2 to 15 above, animals were euthanized 9 hours after inoculation using an overdose of sodium pentobarbital, followed by confirmation of death by cervical dislocation.\nas §5"}, "[4]": {"test_system": "Acinetobacter baumannii AR0274", "assay": "Neutropenic mouse thigh infection, imipenem + Compound 1 dose ratios (Example 3)", "type": "in vivo", "conditions": "Compound 1 total 96 mg/kg IV; 9 h after inoculation", "experimental": "as §1, §2, §3, §4, §5"}, "[5]": {"test_system": "Pseudomonas aeruginosa ACC00680", "assay": "Neutropenic mouse thigh infection, imipenem + cilastatin + Compound 1 dose ratios (Example 2)", "type": "in vivo", "conditions": "Compound 1 total 96 mg/kg IV; 9 h after inoculation", "experimental": "as §1, §2, §3, §4, §5"}}}
{"compound": "N=C1NC[C@@H](c2nnc([C@@H]3CC4(CC4)[C@@H]4CN3C(=O)N4OS(=O)(=O)O)o2)N1", "note": "[Compound 1]", "values": [{"measurement": "effect of surfactant added on the basis of SBECD on solubility", "setting": "[1]; SBECD 10% plus surfactant", "result": "failed to significantly improve the solubility"}, {"measurement": "solubility", "setting": "[1]; water, background statement, conditions not stated", "result": 600, "unit": "µg/mL"}, {"measurement": "Group geometric mean (CFU/g)", "setting": "[2]", "result": "2.06 × 10^7 CFU/g"}, {"measurement": "Group geometric mean (CFU/g)", "setting": "[3]; Compound 1 total 50 mg/kg IV", "result": "4.63 × 10^5 CFU/g"}, {"measurement": "Group geometric mean (CFU/g)", "setting": "[3]; Compound 1 total 75 mg/kg IV", "result": "1.93 × 10^6 CFU/g"}, {"measurement": "Group geometric mean (CFU/g)", "setting": "[3]; Compound 1 total 100 mg/kg IV", "result": "4.52 × 10^6 CFU/g"}, {"measurement": "Group geometric mean (CFU/g)", "setting": "[4]", "result": "1.89 × 10^7 CFU/g"}, {"measurement": "Group geometric mean (CFU/g)", "setting": "[5]", "result": "3.21 × 10^7 CFU/g"}]}
